What was measured:
Assay type in all cases: biochemical
nlGSTE [1] = biological target: T1, nlGSTE (Nilaparvata lugens, UniProt J9Q4G5); assay: spectrophotometry at […] nm, double-reciprocal plot; settings: read-out: WT; 5 mM GSH, 20 mM Tris-HCl pH 8.0, 30 °C
T1 sequence (J9Q4G5 1-217): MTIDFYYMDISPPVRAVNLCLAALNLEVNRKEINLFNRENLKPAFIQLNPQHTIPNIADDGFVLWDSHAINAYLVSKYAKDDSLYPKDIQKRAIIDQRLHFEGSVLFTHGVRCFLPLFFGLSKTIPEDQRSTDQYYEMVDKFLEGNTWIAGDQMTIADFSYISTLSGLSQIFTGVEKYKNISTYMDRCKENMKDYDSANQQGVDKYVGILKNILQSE

nlGSTE [2] = biological target: T2, nlGSTE (Nilaparvata lugens, UniProt J9Q4G5, R112A); assay: spectrophotometry at […] nm, double-reciprocal plot; settings: read-out: R112A; 5 mM GSH, 20 mM Tris-HCl pH 8.0, 30 °C
T2 sequence (J9Q4G5 1-217 R112A): T1 sequence (J9Q4G5 1-217)

nlGSTE [3] = biological target: T3, nlGSTE (Nilaparvata lugens, UniProt J9Q4G5, F118L); assay: spectrophotometry at […] nm, double-reciprocal plot; settings: read-out: F118L; 5 mM GSH, 20 mM Tris-HCl pH 8.0, 30 °C
T3 sequence (J9Q4G5 1-217 F118L): T1 sequence (J9Q4G5 1-217)

nlGSTE [4] = biological target: T4, nlGSTE (Nilaparvata lugens, UniProt J9Q4G5, F119A); assay: spectrophotometry at […] nm, double-reciprocal plot; settings: read-out: F119A; 5 mM GSH, 20 mM Tris-HCl pH 8.0, 30 °C
T4 sequence (J9Q4G5 1-217 F119A): T1 sequence (J9Q4G5 1-217)

nlGSTE [5] = biological target: T5, nlGSTE (Nilaparvata lugens, UniProt J9Q4G5, F107A); assay: spectrophotometry at […] nm, double-reciprocal plot; settings: read-out: F107A; 5 mM GSH, 20 mM Tris-HCl pH 8.0, 30 °C
T5 sequence (J9Q4G5 1-217 F107A): T1 sequence (J9Q4G5 1-217)

nlGSTE [6] = biological target: T1, nlGSTE; assay: inhibition of CDNB conjugation, spectrophotometry; settings: read-out: % remaining activity at 0.1 mM
nlGSTE [7] = biological target: T1, nlGSTE; assay: inhibition of CDNB conjugation, spectrophotometry; settings: substrates CDNB and GSH; several inhibitor concentrations

Structure (SMILES): O=[N+]([O-])c1ccc(Cl)c([N+](=O)[O-])c1 [CDNB, 1-chloro-2,4-dinitrobenzene]
- Km (nlGSTE [1]): 2.1 ± 0.165 mM
- Km (nlGSTE [2]): 8.7 ± 0.666 mM
- Km (nlGSTE [3]): 4.2 ± 0.865 mM
- Km (nlGSTE [4]): 5 ± 0.575 mM
- Km (nlGSTE [5]): 3.1 ± 0.367 mM

Structure (SMILES): CNC(=O)Oc1cccc2c1OC(C)(C)O2 [bendiocarb]
- remaining activity at 100 µM (nlGSTE [6]): 36%

Structure (SMILES): CCOCn1c(-c2ccc(Cl)cc2)c(C#N)c(Br)c1C(F)(F)F [chlorfenapyr]
- remaining activity at 100 µM (nlGSTE [6]): 84%

Structure (SMILES): CCOP(=S)(OCC)Oc1cc(C)nc(C(C)C)n1 [diazinon]
- remaining activity (nlGSTE [7]): nlGSTE activity was affected by permethrin, bendiocarb, diazinon, and chlorfenapyr

Structure (SMILES): CC1(C)C(C=C(Cl)Cl)C1C(=O)OCc1cccc(Oc2ccccc2)c1 (stereo not drawn) [permethrin]
- remaining activity (nlGSTE [7]): nlGSTE activity was affected by permethrin, bendiocarb, diazinon, and chlorfenapyr
